Results: patent US20200354426A1 (MEDIMMUNE LIMITED, priority 2016, published 2020)
Where two headings read alike, the source gives them in different places. Numbered stars: 1 amine (or outer) side, 2 acyl side, 3 side chain; on linkers, the order of the positions; unused ones are H or OH. Side chains are listed from the residue outwards. Peptide text beside a SMILES is read from it. * marks the point of attachment. γGlu = O=C(O)[C@H](CCC(=O)[*:2])N[*:1]; Palmitoyl = CCCCCCCCCCCCCCCC(=O)*

How the values were obtained:
Assay in all cases: cAMP activity assay in assay medium (assay 1)
Assay type in all cases: cell-based
Conditions in all cases: assay medium
Human GLP1R = Human GLP1R (Homo sapiens, UniProt P43220); set-up: expressed in transfected cells
Human GLP1R, sequence (P43220 24-463): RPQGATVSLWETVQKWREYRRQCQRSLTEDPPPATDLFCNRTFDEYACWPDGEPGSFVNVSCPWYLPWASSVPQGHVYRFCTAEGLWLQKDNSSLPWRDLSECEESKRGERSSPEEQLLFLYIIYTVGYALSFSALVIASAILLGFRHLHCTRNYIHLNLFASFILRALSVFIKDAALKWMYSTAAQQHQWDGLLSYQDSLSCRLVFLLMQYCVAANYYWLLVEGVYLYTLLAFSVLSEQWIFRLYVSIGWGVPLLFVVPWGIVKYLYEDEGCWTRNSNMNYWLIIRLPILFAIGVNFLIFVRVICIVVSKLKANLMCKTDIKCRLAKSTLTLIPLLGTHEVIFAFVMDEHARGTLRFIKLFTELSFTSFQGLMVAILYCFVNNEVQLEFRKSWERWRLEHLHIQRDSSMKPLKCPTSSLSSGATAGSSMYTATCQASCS
From the text: (§1) Biological Activity of Peptides in Cell-Based cAMP Activity Assay (Assay 1):
(§2) All sample dilutions were made in duplicate.

Human GIPr = molecular target: T1, Human GIPr (Homo sapiens, UniProt P48546)
T1 construct: expressed in transfected cells
T1 sequence (P48546 22-466): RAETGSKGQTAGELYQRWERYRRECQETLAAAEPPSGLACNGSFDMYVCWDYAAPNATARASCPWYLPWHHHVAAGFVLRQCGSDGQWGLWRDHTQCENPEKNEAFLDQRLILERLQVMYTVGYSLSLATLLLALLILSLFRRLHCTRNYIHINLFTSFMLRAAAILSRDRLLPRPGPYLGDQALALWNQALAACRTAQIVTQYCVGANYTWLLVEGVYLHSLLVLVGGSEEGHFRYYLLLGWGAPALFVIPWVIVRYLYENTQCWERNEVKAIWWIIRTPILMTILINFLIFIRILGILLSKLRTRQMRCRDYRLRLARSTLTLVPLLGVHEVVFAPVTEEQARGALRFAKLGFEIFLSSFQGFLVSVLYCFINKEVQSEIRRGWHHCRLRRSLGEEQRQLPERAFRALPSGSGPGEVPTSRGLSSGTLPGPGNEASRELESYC
From the text: as §1, §2

Human GlucR = molecular target: T2, Human GlucR (Homo sapiens, UniProt P47871)
T2 construct: expressed in transfected cells
T2 sequence (P47871 26-477): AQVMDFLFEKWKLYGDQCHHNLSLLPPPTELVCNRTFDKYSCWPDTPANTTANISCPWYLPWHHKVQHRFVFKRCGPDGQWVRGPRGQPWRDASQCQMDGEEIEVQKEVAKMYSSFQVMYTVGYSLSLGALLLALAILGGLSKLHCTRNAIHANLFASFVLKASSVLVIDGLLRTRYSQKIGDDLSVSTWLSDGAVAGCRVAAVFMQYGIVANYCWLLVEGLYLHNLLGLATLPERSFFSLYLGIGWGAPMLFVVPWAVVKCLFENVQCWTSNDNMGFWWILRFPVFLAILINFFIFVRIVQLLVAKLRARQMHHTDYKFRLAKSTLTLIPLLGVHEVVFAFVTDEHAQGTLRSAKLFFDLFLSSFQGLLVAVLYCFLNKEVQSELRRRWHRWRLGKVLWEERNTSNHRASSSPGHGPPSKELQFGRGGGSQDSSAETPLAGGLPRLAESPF
From the text: as §1, §2

SMILES | EC50 (Human GLP1R; Table 4, read-out: hGLP1R EC50) | EC50 (Human GIPr; Table 4, read-out: hGIPR EC50) | EC50 (Human GlucR; Table 4, read-out: hGlucR EC50) | EC50 (Human GLP1R; Table 3, C-terminal acid peptides, read-out: Human GLP1R EC50) | EC50 (Human GIPr; Table 3, C-terminal acid peptides, read-out: Human GIPr EC50) | EC50 (Human GlucR; Table 3, C-terminal acid peptides, read-out: Human GlucR EC50)
CCCCCCCCCCCCCCCC(=O)N[C@@H](CCC(=O)NCCCC[C@H](NC(=O)[C@H](Cc1ccc(O)cc1)NC(=O)[C@H](CCCCN)NC(=O)[C@H](CO)NC(=O)[C@H](Cc1ccc(O)cc1)NC(=O)[C@H](CC(=O)O)NC(=O)[C@H](CO)NC(=O)[C@@H](NC(=O)[C@H](Cc1ccccc1)NC(=O)[C@@H](NC(=O)CNC(=O)[C@H](CCC(N)=O)NC(=O)[C@H](CO)NC(=O)[C@@H](N)Cc1c[nH]cn1)[C@@H](C)O)[C@@H](C)O)C(=O)N[C@@H](CC(=O)O)C(=O)N[C@@H](CO)C(=O)N[C@@H](CCCNC(=N)N)C(=O)N[C@@H](CO)C(=O)N[C@@H](C)C(=O)N[C@@H](CCC(N)=O)C(=O)N[C@@H](CC(=O)O)C(=O)N[C@@H](Cc1ccccc1)C(=O)N[C@H](C(=O)N[C@@H](CCC(N)=O)C(=O)N[C@@H](Cc1c[nH]c2ccccc12)C(=O)N[C@@H](CC(C)C)C(=O)N[C@H](C(=O)N[C@@H](C)C(=O)NCC(=O)NCC(N)=O)C(C)C)C(C)C)C(=O)O [g670] (H-HSQGTFTSDYSKYK([γGlu-Palmitoyl])DSRSAQDFVQWLVAGG-NH2; N-terminus assumed) | 0.0203 nM | 14.9 nM | 0.008 nM |  |  | 
CCCCCCCCCCCCCCCC(=O)N[C@@H](CCC(=O)NCCCC[C@H](NC(=O)[C@H](Cc1ccc(O)cc1)NC(=O)[C@H](CCC(=O)O)NC(=O)[C@H](CO)NC(=O)[C@H](Cc1ccc(O)cc1)NC(=O)[C@H](CC(=O)O)NC(=O)[C@H](CO)NC(=O)[C@@H](NC(=O)[C@H](Cc1ccccc1)NC(=O)[C@@H](NC(=O)CNC(=O)[C@H](CCC(N)=O)NC(=O)[C@H](CO)NC(=O)[C@@H](N)Cc1c[nH]cn1)[C@@H](C)O)[C@@H](C)O)C(=O)N[C@@H](CC(=O)O)C(=O)N[C@@H](CO)C(=O)N[C@@H](CCCNC(=N)N)C(=O)N[C@@H](CCCNC(=N)N)C(=O)N[C@@H](C)C(=O)N[C@@H](CCCNC(=N)N)C(=O)N[C@@H](CC(=O)O)C(=O)N[C@@H](Cc1ccccc1)C(=O)N[C@H](C(=O)N[C@@H](CCC(=O)O)C(=O)N[C@@H](Cc1c[nH]c2ccccc12)C(=O)N[C@@H](CC(C)C)C(=O)N[C@@H](CCC(=O)O)C(=O)N[C@@H](C)C(=O)NCC(=O)NCC(N)=O)C(C)C)C(=O)O [g876] (H-HSQGTFTSDYSEYK([γGlu-Palmitoyl])DSRRARDFVEWLEAGG-NH2; N-terminus assumed) | 0.0863 nM | 79 nM | 0.0104 nM |  |  | 
CCCCCCCCCCCCCCCC(=O)N[C@@H](CCC(=O)NCCCC[C@H](NC(=O)[C@H](Cc1ccc(O)cc1)NC(=O)[C@H](CCC(=O)O)NC(=O)[C@H](CO)NC(=O)[C@H](Cc1ccc(O)cc1)NC(=O)[C@H](CC(=O)O)NC(=O)[C@H](CO)NC(=O)[C@@H](NC(=O)[C@H](Cc1ccccc1)NC(=O)[C@@H](NC(=O)CNC(=O)[C@H](CCC(N)=O)NC(=O)[C@H](CO)NC(=O)[C@@H](N)Cc1c[nH]cn1)[C@@H](C)O)[C@@H](C)O)C(=O)N[C@@H](CC(=O)O)C(=O)N[C@@H](CO)C(=O)N[C@@H](CCC(=O)O)C(=O)N[C@@H](CCCNC(=N)N)C(=O)N[C@@H](C)C(=O)N[C@@H](CCCNC(=N)N)C(=O)N[C@@H](CC(=O)O)C(=O)N[C@@H](Cc1ccccc1)C(=O)N[C@H](C(=O)N[C@@H](C)C(=O)N[C@@H](Cc1c[nH]c2ccccc12)C(=O)N[C@@H](CC(C)C)C(=O)N[C@H](C(=O)N[C@@H](C)C(=O)NCC(=O)NCC(N)=O)C(C)C)C(C)C)C(=O)O [g846] (H-HSQGTFTSDYSEYK([γGlu-Palmitoyl])DSERARDFVAWLVAGG-NH2; N-terminus assumed) | 0.0438 nM | 11.8 nM | 0.0341 nM |  |  | 
CCCCCCCCCCCCCCCC(=O)N[C@@H](CCC(=O)NCCCC[C@H](NC(=O)[C@H](Cc1ccc(O)cc1)NC(=O)[C@H](CCCCN)NC(=O)[C@H](CO)NC(=O)[C@H](Cc1ccc(O)cc1)NC(=O)[C@H](CC(=O)O)NC(=O)[C@H](CO)NC(=O)[C@@H](NC(=O)[C@H](Cc1ccccc1)NC(=O)[C@@H](NC(=O)CNC(=O)[C@H](CCC(N)=O)NC(=O)[C@H](CO)NC(=O)[C@@H](N)Cc1c[nH]cn1)[C@@H](C)O)[C@@H](C)O)C(=O)N[C@@H](CC(=O)O)C(=O)N[C@@H](CO)C(=O)N[C@@H](CCCNC(=N)N)C(=O)N[C@@H](CO)C(=O)N[C@@H](C)C(=O)N[C@@H](CCCNC(=N)N)C(=O)N[C@@H](CC(=O)O)C(=O)N[C@@H](Cc1ccccc1)C(=O)N[C@H](C(=O)N[C@@H](CCC(=O)O)C(=O)N[C@@H](Cc1c[nH]c2ccccc12)C(=O)N[C@@H](CC(C)C)C(=O)N[C@H](C(=O)N[C@@H](C)C(=O)NCC(=O)NCC(N)=O)C(C)C)C(C)C)C(=O)O [g803] (H-HSQGTFTSDYSKYK([γGlu-Palmitoyl])DSRSARDFVEWLVAGG-NH2; N-terminus assumed) | 0.0296 nM | 32.9 nM | 0.0108 nM |  |  | 

Next, values leading:

EC50 (Human GLP1R; Table 4, read-out: hGLP1R EC50) | EC50 (Human GIPr; Table 4, read-out: hGIPR EC50) | EC50 (Human GlucR; Table 4, read-out: hGlucR EC50) | EC50 (Human GLP1R; Table 3, C-terminal acid peptides, read-out: Human GLP1R EC50) | EC50 (Human GIPr; Table 3, C-terminal acid peptides, read-out: Human GIPr EC50) | EC50 (Human GlucR; Table 3, C-terminal acid peptides, read-out: Human GlucR EC50) | SMILES
0.0254 nM | 1430 nM | 0.156 nM |  |  |  | CCCCCCCCCCCCCCCC(=O)N[C@@H](CCC(=O)NCCCC[C@H](NC(=O)[C@H](CCCNC(=N)N)NC(=O)[C@H](CO)NC(=O)[C@H](CC(=O)O)NC(=O)[C@H](CC(C)C)NC(=O)[C@H](Cc1ccc(O)cc1)NC(=O)[C@H](CCCCN)NC(=O)[C@H](CO)NC(=O)[C@H](Cc1ccc(O)cc1)NC(=O)[C@H](CC(=O)O)NC(=O)[C@H](CO)NC(=O)[C@@H](NC(=O)[C@H](Cc1ccccc1)NC(=O)[C@@H](NC(=O)CNC(=O)[C@H](CCC(N)=O)NC(=O)[C@H](CO)NC(=O)[C@@H](N)Cc1c[nH]cn1)[C@@H](C)O)[C@@H](C)O)C(=O)N[C@@H](C)C(=O)N[C@@H](CCCNC(=N)N)C(=O)N[C@@H](CC(=O)O)C(=O)N[C@@H](Cc1ccccc1)C(=O)N[C@H](C(=O)N[C@@H](C)C(=O)N[C@@H](Cc1c[nH]c2ccccc12)C(=O)N[C@@H](CC(C)C)C(=O)N[C@@H](CCC(=O)O)C(=O)N[C@@H](C)C(=O)NCC(=O)NCC(N)=O)C(C)C)C(=O)O [g782] (H-HSQGTFTSDYSKYLDSRK([γGlu-Palmitoyl])ARDFVAWLEAGG-NH2; N-terminus assumed)
3.16 nM | 1040 nM | 0.0942 nM |  |  |  | CCCCCCCCCCCCCCCC(=O)N[C@@H](CCC(=O)NCCCC[C@H](NC(=O)CNC(=O)CNC(=O)[C@H](C)NC(=O)[C@H](CCC(=O)O)NC(=O)[C@H](CC(C)C)NC(=O)[C@H](Cc1c[nH]c2ccccc12)NC(=O)[C@H](CCC(N)=O)NC(=O)[C@@H](NC(=O)[C@H](Cc1ccccc1)NC(=O)[C@H](CC(=O)O)NC(=O)[C@H](CCC(N)=O)NC(=O)[C@H](C)NC(=O)[C@H](CCCNC(=N)N)NC(=O)[C@H](CCCNC(=N)N)NC(=O)[C@H](CO)NC(=O)[C@H](CC(=O)O)NC(=O)[C@H](CC(C)C)NC(=O)[C@H](Cc1ccc(O)cc1)NC(=O)[C@H](CCCCN)NC(=O)[C@H](CO)NC(=O)[C@H](Cc1ccc(O)cc1)NC(=O)[C@H](CC(=O)O)NC(=O)[C@H](CO)NC(=O)[C@@H](NC(=O)[C@H](Cc1ccccc1)NC(=O)[C@@H](NC(=O)CNC(=O)[C@H](CCC(N)=O)NC(=O)[C@H](CO)NC(=O)[C@@H](N)Cc1c[nH]cn1)[C@@H](C)O)[C@@H](C)O)C(C)C)C(N)=O)C(=O)O [g747]
 |  |  | 0.018 nM | 3.6 nM | 0.0063 nM | CCCCCCCCCCCCCCCC(=O)N[C@@H](CCC(=O)NCCCC[C@H](NC(=O)[C@H](CC(=O)O)NC(=O)[C@H](CO)NC(=O)[C@@H](NC(=O)[C@H](Cc1ccccc1)NC(=O)[C@@H](NC(=O)CNC(=O)[C@H](CCC(N)=O)NC(=O)[C@H](CO)NC(=O)[C@@H](N)Cc1c[nH]cn1)[C@@H](C)O)[C@@H](C)O)C(=O)N[C@@H](CO)C(=O)N[C@@H](CCCCN)C(=O)N[C@@H](Cc1ccc(O)cc1)C(=O)N[C@@H](CC(C)C)C(=O)N[C@@H](CCC(=O)O)C(=O)NCC(=O)N[C@@H](CCC(N)=O)C(=O)N[C@@H](C)C(=O)N[C@@H](C)C(=O)N[C@@H](CCCCN)C(=O)N[C@@H](CCC(=O)O)C(=O)N[C@@H](Cc1ccccc1)C(=O)N[C@H](C(=O)N[C@@H](C)C(=O)N[C@@H](Cc1c[nH]c2ccccc12)C(=O)N[C@@H](CC(C)C)C(=O)N[C@@H](CCC(=O)O)C(=O)N[C@@H](CCCCN)C(=O)NCC(=O)N[C@@H](CCCNC(=N)N)C(=O)O)[C@@H](C)CC)C(=O)O [Peptide G934]
0.135 nM | 117 nM | 0.189 nM |  |  |  | CCCCCCCCCCCCCCCC(=O)N[C@@H](CCC(=O)NCCCC[C@H](NC(=O)[C@H](CO)NC(=O)[C@H](CC(=O)O)NC(=O)[C@H](CC(C)C)NC(=O)[C@H](Cc1ccc(O)cc1)NC(=O)[C@H](CCCCN)NC(=O)[C@H](CO)NC(=O)[C@H](Cc1ccc(O)cc1)NC(=O)[C@H](CC(=O)O)NC(=O)[C@H](CO)NC(=O)[C@@H](NC(=O)[C@H](Cc1ccccc1)NC(=O)[C@@H](NC(=O)CNC(=O)[C@H](CCC(N)=O)NC(=O)CNC(=O)[C@@H](N)Cc1c[nH]cn1)[C@@H](C)O)[C@@H](C)O)C(=O)N[C@@H](CCCNC(=N)N)C(=O)N[C@@H](C)C(=O)N[C@@H](CCC(N)=O)C(=O)N[C@@H](CC(=O)O)C(=O)N[C@@H](Cc1ccccc1)C(=O)N[C@H](C(=O)N[C@@H](CCC(=O)O)C(=O)N[C@@H](Cc1c[nH]c2ccccc12)C(=O)N[C@@H](CC(C)C)C(=O)N[C@H](C(=O)N[C@@H](C)C(=O)NCC(=O)NCC(N)=O)C(C)C)C(C)C)C(=O)O [g679] (H-HGQGTFTSDYSKYLDSK([γGlu-Palmitoyl])RAQDFVEWLVAGG-NH2; N-terminus assumed)
